Like-named read-outs stand apart in the source and are kept apart here.
Experiments:
NCI-H929 cell lines = assay: In vitro cytotoxicity, CellTiter-Glo (CTG) assay (Example B, Method B); assay type: cell-based; details: NCI-H929 cells, 48 h incubation, read-out: C50
Method in brief: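 NCI-H929 cells exposed to an 11-point compound series from 10 mM DMSO stocks (top final 30 μM) for 48 h at 37° C., 5% CO2. Viability measured as ATP by CellTiter-Glo luminescence; C50 is the concentration giving 50% cellular viability.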

[1] = target: Cy5-labelled Mcl1 (amino acids 171-321) C286S protein (UniProtKB Q07820) (Homo sapiens (Human), UniProt Q07820, C286S); assay: Inhibition of Mcl-1 by the fluorescence quenching assay (Example A, Method B); assay type: binding
Chain of Cy5-labelled Mcl1 (amino acids 171-321) C286S protein (Q07820 171-321 C286S): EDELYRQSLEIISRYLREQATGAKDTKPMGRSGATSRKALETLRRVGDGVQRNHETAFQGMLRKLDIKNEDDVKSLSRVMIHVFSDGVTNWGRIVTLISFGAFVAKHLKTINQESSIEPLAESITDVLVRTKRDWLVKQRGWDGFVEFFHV
Method in brief: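 Cy5-labelled Mcl1 171-321 C286S (1 nM) quenched by TQ5WS-labelled PUMA peptide (10, 20 or 400 nM); displacement raises fluorescence (Ex 620/Em 680 nm). Buffer 10 mM HEPES, 150 mM NaCl, 0.05% Tween 20, pH 7.4, 5% DMSO; 2 h at room temperature, 11-point curves, IC50 converted to Ki (cKi/eKi).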

Compound | IC50 (NCI-H929 cell lines) [nM] | Ki [1] [nM] | IC50 (NCI-H929 cell lines; Homo sapiens, NCI-H929, 48 h) [nM] | Ki ([1]; Ki determined from IC50) [nM]
C[C@@H](COc1ccnc2c1[C@H](C)CCC2)CC1Cc2c(Cl)c(Cl)ccc2[C@]12CC[C@@](Nc1cccc(Cl)c1)(C(=O)O)CC2 (single isomer, unassigned) [Example 752] | 344 | 0.321 | – | –
C[C@@H](COc1ccnc2c1[C@H](C)CCC2)C[C@H]1Cc2cc(F)c(F)cc2[C@]12CC[C@@](Nc1cccc(Cl)c1)(C(=O)O)CC2 [Example 775, (1r,2′S,4S)-4-(3-chloroanilino)-5′,6′-difluoro-2′-[(2R)-2-methyl-3-{[(5R)-5-methyl-5,6,7,8-tetrahydroquinolin-4-yl]oxy}propyl]-2′,3′-dihydrospiro[cyclohexane-1,1′-indene]-4-carboxylic acid] | – | 0.518 | 84.4 | –
C[C@@H](COc1ccnc2c1[C@H](C)CC[C@H]2O)C[C@H]1Cc2cc3c(cc2[C@]12CC[C@@](Nc1cccc(Cl)c1)(C(=O)O)CC2)OCO3 [Example 959, (1r,4S,6′S)-4-(3-chloroanilino)-6′-[(2R)-3-{[(5R,8R)-8-hydroxy-5-methyl-5,6,7,8-tetrahydroquinolin-4-yl]oxy}-2-methylpropyl]-6′,7′-dihydro-2′H-spiro[cyclohexane-1,5′-indeno[5,6-d][1,3]dioxole]-4-carboxylic acid] | – | 0.0117 | 28.7 | –
CC(OC(=O)OC1CCCC1)OC(=O)[C@]1(Nc2cccc(Cl)c2)CC[C@@]2(CC1)c1cc3c(cc1C[C@@H]2C[C@@H](C)COc1ccnc2c1[C@H](C)CCC2)OCO3 (stereo partly drawn) [Example 945, 1-{[(cyclopentyloxy)carbonyl]oxy}ethyl (1r,4S,6′S)-4-(3-chloroanilino)-6′-[(2R)-2-methyl-3-{[(5R)-5-methyl-5,6,7,8-tetrahydroquinolin-4-yl]oxy}propyl]-6′,7′-dihydro-2′H-spiro[cyclohexane-1,5′-indeno[5,6-d][1,3]dioxole]-4-carboxylate] | – | 162 | 24700 | –
C[C@@H](COc1ccnc2c1[C@H](C)CCC2)C[C@H]1Cc2ccc(-c3ccsc3)cc2[C@]12CC[C@@](Nc1cccc(Cl)c1)(C(=O)O)CC2 [Example 878, (1r,2′S,4S)-4-(3-chloroanilino)-2′-[(2R)-2-methyl-3-{[(5R)-5-methyl-5,6,7,8-tetrahydroquinolin-4-yl]oxy}propyl]-6′-(thiophen-3-yl)-2′,3′-dihydrospiro[cyclohexane-1,1′-indene]-4-carboxylic acid] | – | 0.386 | 1110 | –
C[C@@H](COc1ccnc2c1[C@H](C)CCC2)C[C@H]1Cc2cc3c(cc2[C@]12CC[C@@](Nc1cccc(Cl)c1)(C(=O)O)CC2)OCCCCO3 [Example 836, (1r,4S,9′S)-4-(3-chloroanilino)-9′-[(2R)-2-methyl-3-{[(5R)-5-methyl-5,6,7,8-tetrahydroquinolin-4-yl]oxy}propyl]-2′,3′,4′,5′,9′,10′-hexahydrospiro[cyclohexane-1,8′-indeno[5,6-b][1,4]dioxocine]-4-carboxylic acid] | – | 0.0472 | 106 | –
Cc1c(Cl)cccc1N[C@]1(C(=O)O)CC[C@]2(CC1)c1ccc(F)cc1CN2C[C@@H](C)COc1ccnc2c1[C@H](C)CCC2 [Example 52, (1s,4S)-4-(3-chloro-2-methylanilino)-5′-fluoro-2′-[(2R)-2-methyl-3-{[(5R)-5-methyl-5,6,7,8-tetrahydroquinolin-4-yl]oxy}propyl]-2′,3′-dihydrospiro[cyclohexane-1,1′-isoindole]-4-carboxylic acid] | – | – | 454 | 0.583
C[C@@H](COc1ccnc2c1[C@H](C)CCC2)C[C@@H]1Cc2ccc(OCC3CC3)cc2[C@]12CC[C@@](Nc1cccc(Cl)c1)(C(=O)O)CC2 [Example 790, (1r,2′R,4R)-4-(3-chloroanilino)-6′-(cyclopropylmethoxy)-2′-[(2R)-2-methyl-3-{[(5R)-5-methyl-5,6,7,8-tetrahydroquinolin-4-yl]oxy}propyl]-2′,3′-dihydrospiro[cyclohexane-1,1′-indene]-4-carboxylic acid] | – | 0.764 | 1460 | –
CC(=O)c1cc(C)c2c(c1)[C@]1(CC[C@@](Nc3cccc(Cl)c3)(C(=O)O)CC1)C(C[C@@H](C)COc1ccnc3c1[C@H](C)CCC3)C2 (single isomer, unassigned) [Example 758] | 97.2 | 1.19 | – | –
CC(C)[C@@H]1CCOc2cc3c(cc2O1)[C@]1(CC[C@@](Nc2cccc(Cl)c2)(C(=O)O)CC1)[C@@H](C[C@@H](C)COc1ccnc2c1[C@H](C)CCC2)C3 [Example 998, (1r,4S,4'S,8′S)-4-(3-chloroanilino)-8′-[(2R)-2-methyl-3-{[(5R)-5-methyl-5,6,7,8-tetrahydroquinolin-4-yl]oxy}propyl]-4′-(propan-2-yl)-3′,4′,8′,9′-tetrahydro-2′H-spiro[cyclohexane-1,7′-indeno[5,6-b][1,4]dioxepine]-4-carboxylic acid] | – | 0.106 | 63.1 | –
C[C@@H](COc1ccnc2c1[C@H](C)CCC2)C[C@H]1Cc2cc3c(cc2[C@]12CC[C@@](Nc1cccc(Cl)c1)(C(=O)O)CC2)O[C@@H](C)[C@H](C)O3 [Example 975, (1r,2′S,3'S,4S,7′S)-4-(3-chloroanilino)-2′,3′-dimethyl-7′-[(2R)-2-methyl-3-{[(5R)-5-methyl-5,6,7,8-tetrahydroquinolin-4-yl]oxy}propyl]-2′,3′,7′,8′-tetrahydrospiro[cyclohexane-1,6′-indeno[5,6-b][1,4]dioxine]-4-carboxylic acid] | – | 0.0244 | 80.2 | –
C[C@@H](COc1ccnc2c1[C@H](C)CC[C@H]2F)C[C@H]1Cc2cc3c(cc2[C@]12CC[C@@](Nc1cccc(Cl)c1)(C(=O)O)CC2)OCO3 [Example 961, (1r,4S,6′S)-4-(3-chloroanilino)-6′-[(2R)-3-{[(5R,8R)-8-fluoro-5-methyl-5,6,7,8-tetrahydroquinolin-4-yl]oxy}-2-methylpropyl]-6′,7′-dihydro-2′H-spiro[cyclohexane-1,5′-indeno[5,6-d][1,3]dioxole]-4-carboxylic acid] | – | 0.0308 | 98.8 | –
C[C@@H](COc1ccnc2c1[C@H](C)CC[C@H]2C)C[C@H]1Cc2cc3c(cc2[C@]12CC[C@@](Nc1cccc(Cl)c1)(C(=O)O)CC2)OCO3 [Example 960, (1r,4S,6′S)-4-(3-chloroanilino)-6′-[(2R)-3-{[(5R,8R)-5,8-dimethyl-5,6,7,8-tetrahydroquinolin-4-yl]oxy}-2-methylpropyl]-6′,7′-dihydro-2′H-spiro[cyclohexane-1,5′-indeno[5,6-d][1,3]dioxole]-4-carboxylic acid] | – | 0.0834 | 77.5 | –
C[C@@H](COc1ccnc2c1[C@H](C)CCC2)C[C@H]1Cc2ccc(-c3ccn(C)c3)cc2[C@]12CC[C@@](Nc1cccc(Cl)c1)(C(=O)O)CC2 [Example 883, (1r,2′S,4S)-4-(3-chloroanilino)-2′-[(2R)-2-methyl-3-{[(5R)-5-methyl-5,6,7,8-tetrahydroquinolin-4-yl]oxy}propyl]-6′-(1-methyl-1H-pyrrol-3-yl)-2′,3′-dihydrospiro[cyclohexane-1,1′-indene]-4-carboxylic acid] | – | 0.246 | 133 | –
C[C@@H](COc1ccnc2c1[C@H](C)CCC2)C[C@H]1Cc2cccc(F)c2[C@]12CC[C@@](Nc1cccc(Cl)c1)(C(=O)O)CC2 [Example 763, (1r,2′S,4S)-4-(3-chloroanilino)-7′-fluoro-2′-[(2R)-2-methyl-3-{[(5R)-5-methyl-5,6,7,8-tetrahydroquinolin-4-yl]oxy}propyl]-2′,3′-dihydrospiro[cyclohexane-1,1′-indene]-4-carboxylic acid] | – | 0.0813 | 118 | –
COc1ccc2c(c1)[C@]1(CC[C@@](Nc3cccc(Cl)c3)(C(=O)O)CC1)[C@H](C[C@@H](C)COc1ccnc3c1[C@H](C)CCC3)C2 [Example 782, (1r,2′R,4R)-4-(3-chloroanilino)-6′-methoxy-2′-[(2R)-2-methyl-3-{[(5R)-5-methyl-5,6,7,8-tetrahydroquinolin-4-yl]oxy}propyl]-2′,3′-dihydrospiro[cyclohexane-1,1′-indene]-4-carboxylic acid] | – | 0.254 | 235 | –
C[C@@H](COc1ccnc2c1[C@H](C)CCC2)C[C@H]1Cc2cc3c(cc2[C@]12CC[C@@](Nc1cccc(Cl)c1)(C(=O)O)CC2)O[C@H](C)CO3 [Example 973, (1r,3′R,4S,7′S)-4-(3-chloroanilino)-3′-methyl-7′-[(2R)-2-methyl-3-{[(5R)-5-methyl-5,6,7,8-tetrahydroquinolin-4-yl]oxy}propyl]-2′,3′,7′,8′-tetrahydrospiro[cyclohexane-1,6′-indeno[5,6-b][1,4]dioxine]-4-carboxylic acid] | – | 0.0118 | 34.3 | –
C[C@@H](COc1ccnc2c1[C@H](C)CCC2)C[C@H]1Cc2ccccc2[C@]12CC[C@@](Nc1ccc(Cl)c(Cl)c1)(C(=O)O)CC2 [Example 715, (1r,2′S,4S)-4-(3,4-dichloroanilino)-2′-[(2R)-2-methyl-3-{[(5R)-5-methyl-5,6,7,8-tetrahydroquinolin-4-yl]oxy}propyl]-2′,3′-dihydrospiro[cyclohexane-1,1′-indene]-4-carboxylic acid] | – | 2.01 | 1290 | –
C[C@@H](COc1ccnc2c1[C@H](C)CCC2)C[C@H]1Cc2cc3c(cc2[C@]12CC[C@@](Nc1cccc(Cl)c1)(C(=O)OCC(=O)N(C)C)CC2)OCO3 [Example 936, 2-(dimethylamino)-2-oxoethyl (1r,4S,6′S)-4-(3-chloroanilino)-6′-[(2R)-2-methyl-3-{[(5R)-5-methyl-5,6,7,8-tetrahydroquinolin-4-yl]oxy}propyl]-6′,7′-dihydro-2′H-spiro[cyclohexane-1,5′-indeno[5,6-d][1,3]dioxole]-4-carboxylate] | – | 142 | 6840 | –

Reference: patent publication US20240150293A1, “SPIROCYCLOHEXANE DERIVATIVES, PHARMACEUTICAL COMPOSITIONS CONTAINING THEM AND THEIR USES AS ANTI-APOPTOTIC INHIBITORS” (LES LABORATOIRES SERVIER, priority 2021, published 2024)
